# Test results as given in patent US20250170105A1, “ASSOCIATION WITH ANTIBIOTIC ACTIVITY, PHARMACEUTICAL COMPOSITIONS CONTAINING IT AND THEIR USE IN THE TREATMENT OF INFECTIONS” (VETAGRO INTERNATIONAL S.R.L., priority 2022, published 2025).
# Where two headings read alike, the source gives them in different places.
# Columns and labels:
# Type in all cases: cell-based
# Escherichia Coli K88 95 [1] = experiment: Individual tests, microdilution MIC; settings: for MIC: Escherichia coli
# Experimental: (§1) Strains were stored at −80° C. in appropriate media with glycerol, thawed and cultured according to conventional practices.
# (§2) The ABs shown in Tables 2 and 3 below, all obtained from Aplha Aesar, were tested. The OAs used are shown in Tables 2 and 3 below, all obtained from Merck. The stock solutions were prepared appropriately and in appropriate way and media for the different strains and could contain 3.5% ethanol to increase solubility.
# (§3) The tests were conducted using the microdilution method in a 96-well plate to be microtitered with the medium and culture conditions appropriate for the strains. Bacterial strains (10^5-10^6 CFU/ml) were incubated with the compounds to be tested, while control strains, when necessary, were grown in media containing 3.5% ethanol to exclude an inhibitory effect of any ethanol present in the stock solutions. After incubation, MIC was defined as the lowest concentration resulting in zero absorbance at 630 nm, recorded with Varioskan® LUX Multimode Microplat Reader (Thermo Fisher Scientific). For each test, the percentage of inhibition (%) was calculated with respect to the relative control.
# (§4) ABs were tested in the range 64-0.13 ppm, OAs in the range […] and NICs in the range 7.5-0.06 nM.
# Escherichia coli K88 97 [2] = experiment: Individual tests, microdilution MIC; settings: for MIC: Escherichia coli
# Experimental: as §1, §2, §3, §4
# Streptococcus suis 701 [3] = experiment: Individual tests, microdilution MIC; settings: S. suis 701; for MIC: Streptococcus suis, read-out: MIC values
# Experimental: as §1, §2, §3, §4
# Streptococcus suis 702 [4] = experiment: Individual tests, microdilution MIC; settings: S. suis 702; for MIC: Streptococcus suis, read-out: MIC values
# Experimental: as §1, §2, §3, §4
# Streptococcus suis 701 [5] = experiment: Combination test, checkerboard, % inhibition; settings: S. suis 701
# Experimental: as §1, §3
# (§5) After phase 1, the strains were tested with associations at sub-effective doses of AB and OA or NIC in a 2×2 checkerboard model. Specifically, two sub-effective doses of AB were associated with two sub-effective doses of OA or NIC (half and one-quarter of MICs) as shown in FIG. 1.
# (§6) The % indicate the percentage of inhibition (compounds alone and combinations).
# (§7) Tables 4 to 7 show the % of inhibition of the components of the associations alone, at the effective concentrations shown in Tables 2 and 3, and at the sub-effective concentrations (half and one-quarter of MICs), and the % of inhibition of the associations.
# Streptococcus suis 702 [6] = experiment: Combination test, checkerboard, % inhibition; settings: S. suis 702
# Experimental: as §1, §3, §5, §6, §7
# Escherichia Coli K88 95 [7] = experiment: Combination test, checkerboard, % inhibition; settings: E. coli 95
# Experimental: as §1, §3, §5, §6, §7
# Escherichia coli K88 97 [8] = experiment: Combination test, checkerboard, % inhibition; settings: E. coli 97
# Experimental: as §1, §3, §5, §6, §7
# [9] = COLIK8895, E. coli 95, read-out: MIC values
# [10] = K8897, E. coli 97, read-out: MIC values
compound,measurement,setting,value
neomycin [reference compound],MIC values,Escherichia Coli K88 95 [1]; E. coli 95,>64 ppm
same,MIC values,Escherichia coli K88 97 [2]; E. coli 97,>64 ppm
same,MIC values,Streptococcus suis 701 [3],8 ppm
same,MIC values,Streptococcus suis 702 [4],16 ppm
same,% inhibition,Streptococcus suis 701 [5]; NEO 2 ppm alone,6%
same,% inhibition,Streptococcus suis 701 [5]; NEO 4 ppm alone,15%
same,% inhibition,Streptococcus suis 702 [6]; NEO 4 ppm alone,10%
same,% inhibition,Streptococcus suis 702 [6]; NEO 8 ppm alone,16%
"Cc1ccc(C(C)C)c(O)c1 [Thymol, 2-isopropyl-5-methylphenol]",MIC,Escherichia Coli K88 95 [1]; [9],1.87 mM
same,MIC,Escherichia coli K88 97 [2]; [10],1.87 mM
same,MIC,Streptococcus suis 701 [3],1.87 mM
same,MIC,Streptococcus suis 702 [4],1.87 mM
same,% inhibition,Escherichia Coli K88 95 [7]; THY 0.47 mM alone,7%
same,% inhibition,Escherichia Coli K88 95 [7]; THY 0.94 mM alone,18%
same,% inhibition,Escherichia coli K88 97 [8]; THY 0.47 mM alone,8%
same,% inhibition,Escherichia coli K88 97 [8]; THY 0.94 mM alone,12%
same,% inhibition,Streptococcus suis 701 [5]; THY 0.47 mM alone,0%
same,% inhibition,Streptococcus suis 701 [5]; THY 0.94 mM alone,39%
same,% inhibition,Streptococcus suis 702 [6]; THY 0.47 mM alone,10%
same,% inhibition,Streptococcus suis 702 [6]; THY 0.94 mM alone,36%
CC1(C)S[C@@H]2[C@H](NC(=O)[C@H](N)c3ccc(O)cc3)C(=O)N2[C@H]1C(=O)O [Amoxicillin],MIC,Escherichia Coli K88 95 [1]; [9],> 64 µg/mL
same,MIC,Escherichia coli K88 97 [2]; [10],> 64 µg/mL
same,MIC,Streptococcus suis 701 [3],0.5 µg/mL
same,MIC,Streptococcus suis 702 [4],0.5 µg/mL
CO/N=C(\C(=O)N[C@@H]1C(=O)N2C(C(=O)O)=C(CSC(=O)c3ccco3)CS[C@H]12)c1csc(N)n1 [Ceftiofur],MIC,Escherichia Coli K88 95 [1]; [9],1 µg/mL
same,MIC,Escherichia coli K88 97 [2]; [10],2 µg/mL
same,MIC,Streptococcus suis 701 [3],0.5 µg/mL
same,MIC,Streptococcus suis 702 [4],0.5 µg/mL
COc1cc(Cc2cnc(N)nc2N)cc(OC)c1OC [Trimethoprim],MIC,Escherichia Coli K88 95 [1]; [9],> 32 µg/mL
same,MIC,Escherichia coli K88 97 [2]; [10],> 32 µg/mL
"C/C=C/C=C/C(=O)O [Sorbic Acid, sorbic acid]",MIC,Escherichia Coli K88 95 [1]; [9],50 mM
same,MIC,Escherichia coli K88 97 [2]; [10],50 mM
same,MIC,Streptococcus suis 701 [3],100 mM
same,MIC,Streptococcus suis 702 [4],50 mM
same,% inhibition,Escherichia Coli K88 95 [7]; SOR 12.5 mM alone,69%
same,% inhibition,Escherichia Coli K88 95 [7]; SOR 25 mM alone,85%
same,% inhibition,Escherichia coli K88 97 [8]; SOR 12.5 mM alone,79%
same,% inhibition,Escherichia coli K88 97 [8]; SOR 25 mM alone,93%
same,% inhibition,Streptococcus suis 701 [5]; SOR 25 mM alone,30%
same,% inhibition,Streptococcus suis 701 [5]; SOR 50 mM alone,56%
same,% inhibition,Streptococcus suis 702 [6]; SOR 12.5 mM alone,26%
same,% inhibition,Streptococcus suis 702 [6]; SOR 25 mM alone,38%
"O=C(O)CC(O)(CC(=O)O)C(=O)O [Citric acid, citric acid]",MIC,Escherichia Coli K88 95 [1]; [9],> 100 mM
same,MIC,Escherichia coli K88 97 [2]; [10],> 100 mM
same,MIC,Streptococcus suis 701 [3],50 mM
same,MIC,Streptococcus suis 702 [4],25 mM
same,% inhibition,Streptococcus suis 701 [5]; CIT 12.5 mM alone,18%
same,% inhibition,Streptococcus suis 701 [5]; CIT 25 mM alone,36%
same,% inhibition,Streptococcus suis 702 [6]; CIT 6.25 mM alone,12%
same,% inhibition,Streptococcus suis 702 [6]; CIT 12.5 mM alone,43%
Cc1cc(NS(=O)(=O)c2ccc(N)cc2)no1 [Sulfamethoxazole],MIC,Escherichia Coli K88 95 [1]; [9],> 608 µg/mL
same,MIC,Escherichia coli K88 97 [2]; [10],> 608 µg/mL
Penicillin,MIC values,Streptococcus suis 701 [3],0.13 ppm
same,MIC values,Streptococcus suis 702 [4],0.13 ppm
"C=CCc1ccc(O)c(OC)c1 [Eugenolo, eugenol]",MIC,Escherichia Coli K88 95 [1]; [9],3.75 mM
same,MIC,Escherichia coli K88 97 [2]; [10],3.75 mM
same,MIC,Streptococcus suis 701 [3],3.75 mM
same,MIC,Streptococcus suis 702 [4],3.75 mM
same,% inhibition,Escherichia Coli K88 95 [7]; EUG 0.94 mM alone,31%
same,% inhibition,Escherichia Coli K88 95 [7]; EUG 1.87 mM alone,44%
same,% inhibition,Escherichia coli K88 97 [8]; EUG 0.94 mM alone,26%
same,% inhibition,Escherichia coli K88 97 [8]; EUG 1.87 mM alone,34%
same,% inhibition,Streptococcus suis 701 [5]; EUG 0.94 mM alone,6%
same,% inhibition,Streptococcus suis 701 [5]; EUG 1.87 mM alone,27%
same,% inhibition,Streptococcus suis 702 [6]; EUG 0.94 mM alone,9%
same,% inhibition,Streptococcus suis 702 [6]; EUG 1.87 mM alone,12%
"CN(C)[C@@H]1C(O)=C(C(N)=O)C(=O)[C@@]2(O)C(O)=C3C(=O)c4c(O)cccc4[C@@](C)(O)[C@H]3C[C@@H]12 [Tetracycline, tetracycline, reference compound]",MIC,Escherichia Coli K88 95 [1]; [9],> 64 µg/mL
same,MIC,Escherichia coli K88 97 [2]; [10],> 64 µg/mL
same,MIC,Streptococcus suis 701 [3],64 µg/mL
same,MIC,Streptococcus suis 702 [4],2 µg/mL
same,% inhibition,Streptococcus suis 701 [5]; TET 16 ppm alone,11%
same,% inhibition,Streptococcus suis 701 [5]; TET 32 ppm alone,28%
same,% inhibition,Streptococcus suis 702 [6]; TET 0.5 ppm alone,20%
same,% inhibition,Streptococcus suis 702 [6]; TET 1 ppm alone,27%
C[C@H]1c2cccc(O)c2C(=O)C2=C(O)[C@]3(O)C(=O)C(C(N)=O)=C(O)[C@@H](N(C)C)[C@@H]3[C@@H](O)[C@@H]21 [Doxycycline],MIC,Streptococcus suis 701 [3],16 µg/mL
same,MIC,Streptococcus suis 702 [4],0.5 µg/mL
CC1(C)S[C@@H]2[C@H](NC(=O)[C@H](N)c3ccccc3)C(=O)N2[C@H]1C(=O)O [Ampicillin],MIC,Streptococcus suis 701 [3],0.25 µg/mL
same,MIC,Streptococcus suis 702 [4],0.25 µg/mL
CS(=O)(=O)c1ccc([C@@H](O)[C@@H](CF)NC(=O)C(Cl)Cl)cc1 [Florfenicol],MIC,Escherichia Coli K88 95 [1]; [9],16 µg/mL
same,MIC,Escherichia coli K88 97 [2]; [10],> 64 µg/mL
same,MIC,Streptococcus suis 701 [3],2 µg/mL
same,MIC,Streptococcus suis 702 [4],2 µg/mL
CC[C@H]1OC(=O)C[C@@H](O)[C@H](C)[C@@H](O[C@@H]2O[C@H](C)[C@@H](O[C@H]3C[C@@](C)(O)[C@@H](O)[C@H](C)O3)[C@H](N(C)C)[C@H]2O)[C@@H](CC=O)C[C@@H](C)C(=O)/C=C/C(C)=C/[C@@H]1CO[C@@H]1O[C@H](C)[C@@H](O)[C@@H](OC)[C@H]1OC [Tylosin],MIC,Streptococcus suis 701 [3],2 µg/mL
same,MIC,Streptococcus suis 702 [4],> 64 µg/mL
"CCCCCC(=O)O [Hexanoic acid, hexanoic acid]",MIC,"Escherichia Coli K88 95 [1]; COLIK8895, read-out: MIC values",50 mM
same,MIC,"Escherichia coli K88 97 [2]; K8897, read-out: MIC values",50 mM
same,% inhibition,Escherichia Coli K88 95 [7]; HEX 12.5 mM alone,76%
same,% inhibition,Escherichia Coli K88 95 [7]; HEX 25 mM alone,83%
same,% inhibition,Escherichia coli K88 97 [8]; HEX 12.5 mM alone,65%
same,% inhibition,Escherichia coli K88 97 [8]; HEX 25 mM alone,83%
CCN1CCN(c2cc3c(cc2F)c(=O)c(C(=O)O)cn3C2CC2)CC1 [Enrofloxacin],MIC,Escherichia Coli K88 95 [1]; [9],2 µg/mL
same,MIC,Escherichia coli K88 97 [2]; [10],2 µg/mL
same,MIC,Streptococcus suis 701 [3],0.5 µg/mL
same,MIC,Streptococcus suis 702 [4],0.5 µg/mL
colistin [reference compound],MIC values,Escherichia Coli K88 95 [1]; E. coli 95,32 ppm
same,MIC values,Escherichia coli K88 97 [2]; E. coli 97,32 ppm
same,% inhibition,Escherichia Coli K88 95 [7]; COL 4 ppm alone,3%
same,% inhibition,Escherichia Coli K88 95 [7]; COL 8 ppm alone,8%
same,% inhibition,Escherichia Coli K88 95 [7]; COL 16 ppm alone,40%
same,% inhibition,Escherichia coli K88 97 [8]; COL 4 ppm alone,10%
same,% inhibition,Escherichia coli K88 97 [8]; COL 8 ppm alone,12%
same,% inhibition,Escherichia coli K88 97 [8]; COL 16 ppm alone,29%
C=C[C@]1(C)C[C@@H](OC(=O)CSCCN(CC)CC)[C@]2(C)[C@H](C)CC[C@]3(CCC(=O)[C@H]32)[C@@H](C)[C@@H]1O [Tiamulin],MIC,Streptococcus suis 701 [3],4 µg/mL
same,MIC,Streptococcus suis 702 [4],1 µg/mL
